Results taken from US20240245694A1, “Tricyclic Compounds and their Uses” (Novartis AG, priority 2022, published 2024).

Columns and labels:
[1] = tested on: SW48 cells; experiment: Proliferation assay SW48 (CellTiterGlo, 96 hours); assay type: cell-based; settings: Homo sapiens
Excerpt: (§1) The colon carcinoma cell lines SW48 (RRID: CVCL_1724), HCT 116 (RRID: CVCL_0291) and SNU-407 (RRID: CVCL_5058) were obtained from ATCC. The WRN-knockdown insensitive colon carcinoma cell line DLD-1 (RRID: CVCL_0248) was obtained from the Korean Cell Line Bank (KCLB), and used to generate a derivative in which the endogenous WRN gene copies were knocked out by CRISPR-mediated editing using standard CRISPR methods. The resulting cell line, DLD1-WRN-KO, was used to assess potential off-target compound effects.
(§2) SW48, SNU-407 and DLD1-WRN-KO cells were cultured in growth medium composed of RPMI-1640 (Amimed Cat #1-41F22-1), 2 mM L-Glutamine (Amimed Cat #5-10K50), 10 mM HEPES (Gibco Cat #15630-056), 1 mM sodium pyruvate (Amimed Cat #5-60F00-H), 1× Penicillin-Streptomycin (Amimed Cat #4-01F00-H) and 10% fetal calf serum (Amimed Cat #2-01F30-G, Lot #LB11566P). HCT 116 cells were cultured in growth medium composed of McCoys 5A (Amimed catalog #1-18F01-1), 2 mM L-Glutamine (Amimed Cat #5-10K50), 1× Penicillin-Streptomycin (Amimed Cat #4-01F00-H) and 10% fetal calf serum (Amimed Cat #2-01F30-G, Lot #LB11566P). All cells were maintained at 37° C. in a humidified 5% CO2 incubator.
(§3) Following filtration through a Steriflip-NY 20 μm filter (Millipore Cat #SCNY00020), trypsinized cells were seeded in 100 microliters growth medium at 2′000 (SW48) or 1′500 (SNU-407, DLD1-WRN-KO, HCT 116) cells/well into white, clear-bottom 96-well plates (Costar Cat #3903). Three replicate plates were prepared for each compound treatment condition. In addition, one plate (termed “day 0”) was prepared to quantify the number of viable cells at the time of compound addition. Following overnight incubation at 37° C. in a humidified 5% CO2 atmosphere, eight 3-fold serial dilutions of a given compound stock (obtained at a concentration of 10 mM in DMSO and stored at 4° C.) were dispensed directly into each of the triplicate assay plates using a HP 300D non-contact Digital Dispenser (TECAN). The final concentration of DMSO was normalized to 0.1% in all wells. 96 hours after compound addition, cellular ATP levels as a surrogate for cell viability was assessed following addition of 50 microliters CellTiterGlo (Promega Cat #G7573) reagent and luminescence quantification on a MPLEX multi-mode plate-reader (TECAN) following a 10 minute incubation at room temperature. The number of viable cells in the “day 0” plate were quantified identically on the day of compound addition.
(§4) For data analysis, the assay background signal that was determined in wells containing medium, but no cells, was subtracted from all other data points prior to further calculations. The extent of growth inhibition and potential cell kill was assessed by comparing the ATP levels (measured using CellTiterGlo, Promega) in compound-treated cells with those present at the time of compound addition. To this end, the following conditional concept was programmatically applied in HELIOS, an in-house software applying a multi-step decision tree to arrive at optimal concentration response curve fits (Gubler et al, SLAS DOI: 10.1177/2472555217752140) to calculate % growth (% G) for each compound-treated well: % G=(T−V0)/V0))*100 when T<V0, and % G=(T−V0)/(V−V0)))*100 when T>V0, where V0 is the viability level at time of compound addition, while V and T represent vehicle-control and compound-treated viability levels, respectively, at the end of the compound incubation. 100%, 0% and −100% signify absence of growth inhibition, growth stasis, and complete cell kill, respectively. Compound concentrations leading to half-maximal growth inhibition (G150) and residual cell viability at the highest tested compound concentration (Data (cmax), expressed in percent) were routinely calculated. Data analysis can also be carried out using commercially available software designed to derive IC50 values using 4-parameter fits (e.g. GraphPad Prism, XL fit). […]

[2] = tested on: DLD1-WRN-KO cells; experiment: Proliferation assay DLD1-WRN-KO (CellTiterGlo, 96 hours), off-target effects; assay type: cell-based; settings: Homo sapiens
Excerpt: as §1, §2, §3, §4

[3] = molecular target: WRN helicase (core helicase motif aa N517-P1238) (Homo sapiens (Human), UniProt Q14191); experiment: WRN ATPase assay (ADP-Glo), DNA dependent ATP hydrolysis; assay type: biochemical; settings: 3 hours pre-incubation, 300 micromolar ATP, FLAP26 ssDNA; geometric means of at least 2 determinations
Excerpt: An ATPase assay was set up to measure the DNA dependent ATP hydrolysis activity of WRN helicase. This assay was used also to assess the inhibition properties of compounds of the invention on DNA dependent WRN ATPase activity.
The core helicase motif of the WRN protein (aa N517-P1238) was produced for this assay (protein production as described above). A 45 oligonucleotide sequence called “FLAP26” as described by Brosh et al., 2009, DOI: 10.1074/jbc.M111446200 ([…]; SEQ ID NO: 2) was purchased from IDT (Integrated DNA Technologies, Leuven, Belgium) and used as single strand DNA substrate. The ADP-Glo assay kit (Promega, Madison, WI) allowing the quantification of ADP produced in ATP hydrolysis reactions was used for setting up this assay. Time course experiments were first performed in order to determine the best enzymatic assay conditions (including buffer conditions, reaction time and concentrations of protein, ATP and DNA substrates). A typical reaction consists of 10 nM WRN protein, 0.2 nM FLAP26, and 300 micromolar ATP in the following assay buffer: 30 mM Tris pH7.5, 2 mM MgCl2, 0.02% BSA, 50 mM NaCl, 0.1% pluronic F127 prepared in DNAse free water.
To evaluate the inhibition properties of compounds of the invention, serial dilutions were prepared in DMSO (10 half log dilutions from a 10 mM DMSO solution). 50 nanoliters of each concentration was pre-incubated for 3 hours in a 384 small volume assay plate (Greiner #784075) with 2.5 microliters of a 20 nM WRN helicase protein in assay buffer with 600 micromolar ATP. Control wells were included with a “high control” (no inhibition), containing DMSO with no test compound, and “low controls” (maximal inhibition), containing buffer without protein. The reaction was started by addition of 2.5 microliters of FLAP26 at 0.4 nM and incubated for 30 minutes at room temperature. The reaction was stopped with the addition of 5 microliters of the first ADP-Glo reagent and incubated for one hour to remove the excess amount of ATP. Afterwards, 10 microliters of ATP detection reagent was added and incubated for an additional hour before reading. Luminescence output was recorded using Tecan 1000 reader, with 5 minutes delay before reading. Each concentration of compound was tested in duplicates in the assay plate.
Data analysis was carried out using an in-house developed software (Novartis Helios software application, Novartis Institutes for BioMedical Research, unpublished) using the methods described by Formenko et al., 2006, DOI: 10.1016/j.cmpb.2006.01.008. Following normalization of activity values for the wells to % inhibition (% inhibition=[(high control-sample)/(high control-low control)]×100), IC50 fitting was carried out from the duplicate determinations present on each plate according to [4]. Data analysis can also be carried out using commercially available software designed to derive IC50 values using 4-parameter fits (e.g. GraphPad Prism, XL fit). The reported IC50 values are the geometrical means of at least 2 independent replicates.

WRN helicase (core helicase motif aa N517-P1238), sequence (Q14191 517-1238): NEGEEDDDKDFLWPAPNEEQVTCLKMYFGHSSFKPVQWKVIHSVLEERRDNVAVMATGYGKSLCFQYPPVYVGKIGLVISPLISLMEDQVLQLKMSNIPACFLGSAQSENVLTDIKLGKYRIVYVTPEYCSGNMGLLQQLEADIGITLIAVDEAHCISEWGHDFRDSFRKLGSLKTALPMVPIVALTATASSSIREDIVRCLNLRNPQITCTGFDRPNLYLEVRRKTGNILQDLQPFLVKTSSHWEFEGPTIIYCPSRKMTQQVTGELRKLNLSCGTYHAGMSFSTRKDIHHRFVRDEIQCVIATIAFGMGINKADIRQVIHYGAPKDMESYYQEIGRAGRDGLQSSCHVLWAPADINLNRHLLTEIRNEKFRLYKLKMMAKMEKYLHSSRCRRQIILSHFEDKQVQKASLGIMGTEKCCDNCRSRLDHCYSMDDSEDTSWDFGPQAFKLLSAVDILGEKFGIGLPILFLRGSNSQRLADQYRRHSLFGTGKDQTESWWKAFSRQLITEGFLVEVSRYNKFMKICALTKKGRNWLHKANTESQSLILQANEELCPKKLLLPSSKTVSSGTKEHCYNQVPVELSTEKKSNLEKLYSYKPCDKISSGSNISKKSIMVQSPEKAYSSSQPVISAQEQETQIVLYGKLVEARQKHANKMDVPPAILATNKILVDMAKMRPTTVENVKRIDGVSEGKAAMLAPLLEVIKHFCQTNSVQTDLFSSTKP

SMILES | GI50 [1] | GI50 [2] | IC50 [3]
Cc1ncnc(C(=O)N2CCN(c3c4n(c5nc(C6=CCOCC6)nn5c3=O)[C@H](C(=O)Nc3ccc(C(F)(F)F)cc3Cl)C[C@H]4C)CC2)c1O [Example 14D, (7R,9S)—N-(2-chloro-4-(trifluoromethyl)phenyl)-2-(3,6-dihydro-2H-pyran-4-yl)-6-(4-(5-hydroxy-6-methylpyrimidine-4-carbonyl)piperazin-1-yl)-7-methyl-5-oxo-5,7,8,9-tetrahydropyrrolo[1,2-c][1,2,4]triazolo[1,5-a]pyrimidine-9-carboxamide] | 700 nM | > 10000 nM | 1000 nM
C[C@H]1C[C@H](C(=O)Nc2ccc(C(F)(F)F)cc2Cl)n2c1c(N1CCN(C(=O)c3nccc(Cl)c3O)CC1)c(=O)n1nc(N3CCOCC3)nc21 [Example 1C, (7S,9R)-6-(4-(4-chloro-3-hydroxypicolinoyl)piperazin-1-yl)-N-(2-chloro-4-(trifluoromethyl)phenyl)-7-methyl-2-morpholino-5-oxo-5,7,8,9-tetrahydropyrrolo[1,2-c][1,2,4]triazolo[1,5-a]pyrimidine-9-carboxamide] | 500 nM | > 10000 nM | 40 nM
Cc1ncnc(C(=O)N2CCN(c3c4n(c5nc(C6=CCOCC6)nn5c3=O)[C@@H](C(=O)Nc3ccc(C(F)(F)F)cc3Cl)C[C@@H]4C)CC2)c1O [Example 14C, (7S,9R)—N-(2-chloro-4-(trifluoromethyl)phenyl)-2-(3,6-dihydro-2H-pyran-4-yl)-6-(4-(5-hydroxy-6-methylpyrimidine-4-carbonyl)piperazin-1-yl)-7-methyl-5-oxo-5,7,8,9-tetrahydropyrrolo[1,2-c][1,2,4]triazolo[1,5-a]pyrimidine-9-carboxamide] | 300 nM | > 10000 nM | 100 nM
C[C@H]1C[C@@H](C(=O)Nc2ccc(C(F)(F)F)cc2Cl)n2c1c(N1CCN(C(=O)c3nccc(Cl)c3O)CC1)c(=O)n1nc(N3CCOCC3)nc21 [Example 1B, (7S,9S)-6-(4-(4-chloro-3-hydroxypicolinoyl)piperazin-1-yl)-N-(2-chloro-4-(trifluoromethyl)phenyl)-7-methyl-2-morpholino-5-oxo-5,7,8,9-tetrahydropyrrolo[1,2-c][1,2,4]triazolo[1,5-a]pyrimidine-9-carboxamide] | 9000 nM | > 10000 nM | 7000 nM
Cc1cc(C(F)(F)F)ccc1NC(=O)[C@@H]1CCc2c(N3CCN(C(=O)c4ncccc4O)CC3)c(=O)n3nc(C4=CCOCC4)nc3n21 [Example 20B, (S)-2-(3,6-dihydro-2H-pyran-4-yl)-6-(4-(3-hydroxypicolinoyl)piperazin-1-yl)-N-(2-methyl-4-(trifluoromethyl)phenyl)-5-oxo-5,7,8,9-tetrahydropyrrolo[1,2-c][1,2,4]triazolo[1,5-a]pyrimidine-9-carboxamide] | > 10000 nM | > 10000 nM | > 10000 nM
Cc1ncnc(C(=O)N2CCN(c3c4n(c5nc(C6=CCOCC6)nn5c3=O)[C@H](C(=O)Nc3ccc(C(F)(F)F)cc3Cl)C[C@H]4C)C[C@H]2C)c1O [Example 18C, (7R,9S)—N-(2-chloro-4-(trifluoromethyl)phenyl)-2-(3,6-dihydro-2H-pyran-4-yl)-6-((R)-4-(5-hydroxy-6-methylpyrimidine-4-carbonyl)-3-methylpiperazin-1-yl)-7-methyl-5-oxo-5,7,8,9-tetrahydropyrrolo[1,2-c][1,2,4]triazolo[1,5-a]pyrimidine-9-carboxamide] | > 10000 nM | > 10000 nM | > 10000 nM

The next compounds have a lower GI50 [1] than those just listed; values first:

GI50 [1] | GI50 [2] | IC50 [3] | SMILES
40 nM | > 10000 nM | 20 nM | Cc1ncnc(C(=O)N2CCN(c3c4n(c5nc(N6CCOCC6)nn5c3=O)[C@@H](C(=O)Nc3ccc(C(F)(F)F)cc3Cl)C[C@H]4C)CC2)c1O [Example 2A, (7R,9R)—N-(2-chloro-4-(trifluoromethyl)phenyl)-6-(4-(5-hydroxy-6-methylpyrimidine-4-carbonyl)piperazin-1-yl)-7-methyl-2-morpholino-5-oxo-5,7,8,9-tetrahydropyrrolo[1,2-c][1,2,4]triazolo[1,5-a]pyrimidine-9-carboxamide]
200 nM | > 10000 nM | 90 nM | Cc1nccc(C(=O)N2CCN(c3c4n(c5nc(C6=CCOCC6)nn5c3=O)[C@@H](C(=O)Nc3ccc(C(F)(F)F)cc3Cl)C[C@H]4C)CC2)c1O [Example 10, (7R,9R)—N-(2-chloro-4-(trifluoromethyl)phenyl)-2-(3,6-dihydro-2H-pyran-4-yl)-6-(4-(3-hydroxy-2-methylisonicotinoyl)piperazin-1-yl)-7-methyl-5-oxo-5,7,8,9-tetrahydropyrrolo[1,2-c][1,2,4]triazolo[1,5-a]pyrimidine-9-carboxamide]
20 nM | > 10000 nM | 60 nM | Cc1cc(C(F)(F)F)ccc1NC(=O)[C@H]1C[C@@H](C)c2c(N3CCN(C(=O)c4ncnc(C)c4O)CC3)c(=O)n3nc(C4=CCOCC4)nc3n21 [Example 17, (7R,9R)-2-(3,6-dihydro-2H-pyran-4-yl)-6-(4-(5-hydroxy-6-methylpyrimidine-4-carbonyl)piperazin-1-yl)-7-methyl-N-(2-methyl-4-(trifluoromethyl)phenyl)-5-oxo-5,7,8,9-tetrahydropyrrolo[1,2-c][1,2,4]triazolo[1,5-a]pyrimidine-9-carboxamide]
